Test [1] concerns T1, intracellular sucrase.
T1 construct: native purification from promastigote cell-free extract; ~56 kDa subunit (SDS-PAGE), ~112 kDa native, proposed homodimer; gene not identified
Nature of the test: colorimetric glucose release ([…] nm), Lineweaver-Burk. Type of test: biochemical, Leishmania donovani. As to conditions: 50 mM sodium acetate, pH 6.0, 30°C, 30 min; 0.4-5.0 mM sucrose; purified enzyme.

Test [2] has as its target intracellular sucrase of Leishmania donovani promastigotes (Leishmania donovani (endogenous in promastigotes, strain MOHM/IN/1978/UR6)). The test can be described thus: SEC; Sephacryl S-200 column (120 x 1 cm), Buffer A (50 mM Tris-HCl, pH 7.4), 22 mL/hr; ammonium sulfate fraction of cell-free extract, sucrase followed by activity; native size from calibration graph compared with the subunit size in 10% SDS-PAGE. (SEC sorts molecules by how far they enter the pores of the column.)

One may read the Km as the substrate concentration at which the rate is half of its maximum. One may read the stoichiometry N as a count of units in the complex or per binding partner.

Turning to `OC[C@H]1O[C@@](CO)(O[C@H]2O[C@H](CO)[C@@H](O)[C@H](O)[C@H]2O)[C@@H](O)[C@@H]1O` [sucrose], the Km in test [1] was found to be 1610 µM.
“intracellular sucrase of Leishmania donovani promastigotes (enzyme)” displayed a stoichiometry N in test [2] of 2.

(Values after paper PMC4848734, “Purification and Characterization of a Novel Intracellular Sucrase Enzyme of Leishmania donovani Promastigotes” (Biochemistry Research International, 2016).)
